Patent publication US11147812B2, “Tyrosine analogues derivatives as Rho-kinase inhibitors” (Chiesi Farmaceutici S.p.A., priority 2017, dated 2021)

Assays:
[1] = target: Rho kinase 1 (ROCK1) (Homo sapiens, UniProt Q13464); assay: In vitro Rho kinase inhibitory activity assay (ADP-Glo), ROCK1; format: biochemical; details: 10 μM ATP, 25° C., Ki by Cheng-Prusoff
Description: (§1) The effectiveness of compounds of the present invention to inhibit Rho kinase activity can be determined in a 10 μl assay containing 40 mM Tris pH7.5, 20 mM MgCl2 0.1 mg/ml BSA, 50 μM DTT and 2.5 μM peptide substrate (Myelin Basic Protein) using an ADP-Glo kit (Promega). Compounds were dissolved in DMSO such that the final concentration of DMSO was 1% in the assay. All reactions/incubations are performed at 25° C. Compound (2 ul) and either Rho kinase 1 or 2 (4 μl) were mixed and incubated for 30 mins. Reactions were initiated by addition of ATP (4 μl) such that the final concentration of ATP in the assay was 10 μM. After a 1 hour incubation 10 μl of ADP-Glo Reagent was added and after a further 45 minute incubation 20 ul of Kinase Detection Buffer was added and the mixture incubated for a further 30 minutes. The luminescent signal was measured on a luminometer. […] Compounds were tested in dose-response format and the inhibition of kinase activity was calculated at each concentration of compound. To determine the IC50 (concentration of compound required to inhibit 50% of the enzyme activity) data were fit to a plot of % inhibition vs Log10 compound concentration using a sigmoidal fit with a variable slope and fixing the maximum to 100% and the minimum to 0%. To determine the Ki values the Cheng-Prusoff equation was utilized (Ki=IC50/(1+[S]/Km)

[2] = target: Rho kinase 2 (ROCK2) (Homo sapiens, UniProt O75116); assay: In vitro Rho kinase inhibitory activity assay (ADP-Glo), ROCK2; format: biochemical; details: 10 μM ATP, 25° C., Ki by Cheng-Prusoff
Rho kinase 2 (ROCK2), sequence (O75116 whole entry): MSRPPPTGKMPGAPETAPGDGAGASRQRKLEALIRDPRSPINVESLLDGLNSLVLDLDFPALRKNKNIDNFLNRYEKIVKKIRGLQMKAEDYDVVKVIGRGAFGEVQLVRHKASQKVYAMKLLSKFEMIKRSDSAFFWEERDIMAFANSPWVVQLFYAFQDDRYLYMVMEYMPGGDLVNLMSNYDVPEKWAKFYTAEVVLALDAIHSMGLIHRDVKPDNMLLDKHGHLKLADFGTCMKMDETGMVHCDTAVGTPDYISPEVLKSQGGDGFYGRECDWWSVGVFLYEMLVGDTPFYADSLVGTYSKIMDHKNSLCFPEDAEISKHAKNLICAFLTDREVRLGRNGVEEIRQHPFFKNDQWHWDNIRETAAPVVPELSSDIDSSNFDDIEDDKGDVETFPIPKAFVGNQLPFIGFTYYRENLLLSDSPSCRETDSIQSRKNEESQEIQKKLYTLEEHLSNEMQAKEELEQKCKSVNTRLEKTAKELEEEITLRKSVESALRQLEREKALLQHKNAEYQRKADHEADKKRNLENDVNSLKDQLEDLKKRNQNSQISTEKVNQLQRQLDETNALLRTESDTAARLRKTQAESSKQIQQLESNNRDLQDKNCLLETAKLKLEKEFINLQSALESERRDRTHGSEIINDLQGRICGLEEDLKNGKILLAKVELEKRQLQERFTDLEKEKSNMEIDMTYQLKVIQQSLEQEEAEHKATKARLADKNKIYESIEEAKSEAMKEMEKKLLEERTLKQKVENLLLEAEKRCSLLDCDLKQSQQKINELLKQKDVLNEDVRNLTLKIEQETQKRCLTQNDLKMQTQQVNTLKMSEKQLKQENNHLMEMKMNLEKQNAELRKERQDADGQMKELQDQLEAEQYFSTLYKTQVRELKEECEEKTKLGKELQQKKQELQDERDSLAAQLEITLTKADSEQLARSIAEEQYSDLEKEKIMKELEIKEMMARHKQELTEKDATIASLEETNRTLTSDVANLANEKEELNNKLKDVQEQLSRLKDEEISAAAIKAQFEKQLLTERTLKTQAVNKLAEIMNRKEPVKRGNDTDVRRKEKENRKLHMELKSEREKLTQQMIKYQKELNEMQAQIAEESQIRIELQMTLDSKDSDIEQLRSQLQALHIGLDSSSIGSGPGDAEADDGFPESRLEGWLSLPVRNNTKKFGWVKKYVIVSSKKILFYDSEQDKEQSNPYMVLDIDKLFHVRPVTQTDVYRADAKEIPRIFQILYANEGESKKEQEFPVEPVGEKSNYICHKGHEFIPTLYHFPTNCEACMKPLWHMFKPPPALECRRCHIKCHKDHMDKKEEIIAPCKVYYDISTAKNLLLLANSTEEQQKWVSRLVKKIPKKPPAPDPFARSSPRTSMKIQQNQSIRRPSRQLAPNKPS
Description: as §1

Rho kinase 1 (ROCK1), sequence (Q13464 whole entry): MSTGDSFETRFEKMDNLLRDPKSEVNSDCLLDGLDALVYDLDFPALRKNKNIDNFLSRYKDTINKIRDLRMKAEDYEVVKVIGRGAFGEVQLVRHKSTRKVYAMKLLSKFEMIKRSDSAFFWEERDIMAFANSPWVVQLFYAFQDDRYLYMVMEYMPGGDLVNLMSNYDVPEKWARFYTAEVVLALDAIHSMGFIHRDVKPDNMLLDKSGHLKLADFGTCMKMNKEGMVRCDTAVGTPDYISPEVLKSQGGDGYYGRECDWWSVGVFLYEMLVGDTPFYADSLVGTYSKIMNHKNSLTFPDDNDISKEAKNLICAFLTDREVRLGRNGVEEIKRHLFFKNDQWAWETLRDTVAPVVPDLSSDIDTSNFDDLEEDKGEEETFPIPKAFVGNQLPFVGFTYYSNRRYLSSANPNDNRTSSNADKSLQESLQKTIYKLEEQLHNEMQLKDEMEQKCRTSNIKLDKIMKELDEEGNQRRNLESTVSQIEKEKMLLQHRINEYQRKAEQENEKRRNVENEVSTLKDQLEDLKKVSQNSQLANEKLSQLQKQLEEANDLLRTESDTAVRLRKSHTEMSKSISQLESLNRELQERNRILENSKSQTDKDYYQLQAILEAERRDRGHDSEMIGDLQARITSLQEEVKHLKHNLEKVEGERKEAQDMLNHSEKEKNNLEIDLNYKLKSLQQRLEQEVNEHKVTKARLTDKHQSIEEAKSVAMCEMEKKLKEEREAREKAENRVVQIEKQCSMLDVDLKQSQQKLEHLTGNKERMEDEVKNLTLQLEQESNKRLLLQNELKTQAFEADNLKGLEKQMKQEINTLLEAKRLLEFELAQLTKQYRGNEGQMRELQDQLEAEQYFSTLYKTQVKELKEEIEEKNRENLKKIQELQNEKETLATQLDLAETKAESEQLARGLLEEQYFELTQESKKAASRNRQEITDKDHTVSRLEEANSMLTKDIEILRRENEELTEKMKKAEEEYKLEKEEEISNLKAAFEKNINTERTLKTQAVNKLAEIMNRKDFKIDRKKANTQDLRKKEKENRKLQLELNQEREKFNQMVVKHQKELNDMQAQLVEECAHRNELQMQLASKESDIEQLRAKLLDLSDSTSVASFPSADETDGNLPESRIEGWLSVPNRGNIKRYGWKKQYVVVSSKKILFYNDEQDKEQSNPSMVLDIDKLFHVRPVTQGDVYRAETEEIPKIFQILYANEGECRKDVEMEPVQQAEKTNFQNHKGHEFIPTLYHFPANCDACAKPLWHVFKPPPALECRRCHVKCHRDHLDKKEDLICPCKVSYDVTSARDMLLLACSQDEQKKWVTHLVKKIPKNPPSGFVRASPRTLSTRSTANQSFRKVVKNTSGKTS

Ki [1] [nM]	Ki [2] [nM]	Structure (SMILES)
3 to 30	< 3	Cc1c[nH]c2nccc(Oc3ccc([C@@H]4CN(C)C[C@H]4C(=O)NCc4ccccc4)cc3)c12 (racemic) [Example 50, rac-(3R,4S)-N-benzyl-1-methyl-4-(4-((3-methyl-1H-pyrrolo[2,3-b]pyridin-4-yl)oxy)phenyl)pyrrolidine-3-carboxamide]
< 3	< 3	Cc1c[nH]c2nccc(Oc3ccc([C@H]4CNC[C@@H]4C(=O)NCc4ccccc4)cc3)c12 (single isomer, unassigned) [Example 17A]
3 to 30	3 to 30	Cc1c[nH]c2nccc(Oc3ccc([C@H]4CNC[C@@H]4C(=O)NCc4ccccc4)cc3)c12 (single isomer, unassigned) [Example 17B]
3 to 30	3 to 30	Cc1c[nH]c2nccc(Oc3ccc(CC(CN)C(=O)N4CCN(Cc5ccccc5)CC4)cc3F)c12 (single isomer, unassigned) [Example 29A, 3-amino-1-(4-benzylpiperazin-1-yl)-2-(3-fluoro-4-((3-methyl-1H-pyrrolo[2,3-b]pyridin-4-yl)oxy)benzyl)propan-l-one]
< 3	< 3	Cc1c[nH]c2nccc(Oc3ccc(CC(CN)C(=O)N4CCN(Cc5ccccc5)CC4)cc3F)c12 (single isomer, unassigned) [Example 29B, 3-amino-1-(4-benzylpiperazin-1-yl)-2-(3-fluoro-4-((3-methyl-1H-pyrrolo[2,3-b]pyridin-4-yl)oxy)benzyl)propan-1-one]
3 to 30	3 to 30	NCC(Cc1ccc(Oc2ccnc3[nH]ccc23)cc1)C(=O)N1CCN(Cc2ccccc2)CC1 (single isomer, unassigned) [Example 32A, 2-(4-((1H-pyrrolo[2,3-b]pyridin-4-yl)oxy)benzyl)-3-amino-1-(4-benzylpiperazin-1-yl)propan-1-one]
< 3	< 3	NCC(Cc1ccc(Oc2ccnc3[nH]ccc23)cc1)C(=O)N1CCN(Cc2ccccc2)CC1 (single isomer, unassigned) [Example 32B, 2-(4-((1H-pyrrolo[2,3-b]pyridin-4-yl)oxy)benzyl)-3-amino-1-(4-benzylpiperazin-1-yl)propan-1-one]
> 30	> 30	CN1CCN(C(=O)C(N)c2ccc(Oc3ccnc4[nH]ccc34)cc2)CC1 (stereo not drawn) [Example 11, 2-(4-((1H-pyrrolo[2,3-b]pyridin-4-yl)oxy)phenyl)-2-amino-1-(4-methylpiperazin-1-yl)ethanone]
> 30	> 30	CN(C)C(=O)C(N)c1ccc(Oc2ccnc3[nH]ccc23)cc1 (stereo not drawn) [Example 12, 2-(4-((1H-pyrrolo[2,3-b]pyridin-4-yl)oxy)phenyl)-2-amino-N,N-dimethylacetamide]
> 30	> 30	NC(C(=O)NC1CCOCC1)c1ccc(Oc2ccnc3[nH]ccc23)cc1 (stereo not drawn) [Example 13, 2-(4-((1H-pyrrolo[2,3-b]pyridin-4-yl)oxy)phenyl)-2-amino-N-(tetrahydro-2H-pyran-4-yl)acetamide]
> 30	> 30	CN1CCC(NC(=O)C(N)c2ccc(Oc3ccnc4[nH]ccc34)cc2)CC1 (stereo not drawn) [Example 14, 2-(4-((1H-pyrrolo[2,3-b]pyridin-4-yl)oxy)phenyl)-2-amino-N-(1-methylpiperidin-4-yl)acetamide]
< 3	< 3	Cc1c[nH]c2nccc(Oc3ccc(C(CN)CC(=O)N4CCN(Cc5ccccc5)CC4)cc3)c12 (stereo not drawn) [Example 15, 4-amino-1-(4-benzylpiperazin-1-yl)-3-(4-((3-methyl-1H-pyrrolo[2,3-b]pyridin-4-yl)oxy)phenyl)butan-1-one]
3 to 30	3 to 30	Cc1c[nH]c2nccc(Oc3ccc(C(CN)CC(=O)N4CCN(C5CC5)CC4)cc3)c12 (stereo not drawn) [Example 16, 4-amino-1-(4-cyclopropylpiperazin-1-yl)-3-(4-((3-methyl-1H-pyrrolo[2,3-b]pyridin-4-yl)oxy)phenyl)butan-1-one]
< 3	< 3	Cc1c[nH]c2nccc(Oc3ccc(CC(CN)C(=O)NC4CCCCC4)cc3F)c12 (stereo not drawn) [Example 28, 3-amino-N-cyclohexyl-2-(3-fluoro-4-((3-methyl-1H-pyrrolo[2,3-b]pyridin-4-yl)oxy)benzyl)propanamide]

Further lines, the molecule ahead of its results:

Structure (SMILES)	Ki [1] [nM]	Ki [2] [nM]
Cc1c[nH]c2nccc(Oc3ccc(CC(CN)C(=O)N4C[C@@H]5C[C@H]4CN5C)cc3F)c12 (single isomer, unassigned) [Example 4A]	3 to 30	3 to 30
Cc1c[nH]c2nccc(Oc3ccc(CC(CN)C(=O)N4C[C@@H]5C[C@H]4CN5C)cc3F)c12 (single isomer, unassigned) [Example 4B]	< 3	< 3
Cc1c[nH]c2nccc(Oc3ccc(CC(CN)C(=O)N4CCN(Cc5ccccn5)CC4)cc3F)c12 (single isomer, unassigned) [Example 5A, 3-amino-2-(3-fluoro-4-((3-methyl-1H-pyrrolo[2,3-b]pyridin-4-yl)oxy)benzyl)-1-(4-(pyridin-2-ylmethyl)piperazin-1-yl)propan-1-one]	3 to 30	3 to 30
Cc1c[nH]c2nccc(Oc3ccc(CC(CN)C(=O)N4CCN(Cc5ccccn5)CC4)cc3F)c12 (single isomer, unassigned) [Example 5B, 3-amino-2-(3-fluoro-4-((3-methyl-1H-pyrrolo[2,3-b]pyridin-4-yl)oxy)benzyl)-1-(4-(pyridin-2-ylmethyl)piperazin-1-yl)propan-1-one]	< 3	< 3
Cc1c[nH]c2nccc(Oc3ccc(C(N)CC(=O)N4CCN(Cc5ccccc5)CC4)cc3)c12 (single isomer, unassigned) [Example 7A, 3-amino-1-(4-benzylpiperazin-1-yl)-3-(4-((3-methyl-1H-pyrrolo[2,3-b]pyridin-4-yl)oxy)phenyl)propan-1-one]	< 3	< 3
Cc1c[nH]c2nccc(Oc3ccc(C(N)CC(=O)N4CCN(Cc5ccccc5)CC4)cc3)c12 (single isomer, unassigned) [Example 7B, 3-amino-1-(4-benzylpiperazin-1-yl)-3-(4-((3-methyl-1H-pyrrolo[2,3-b]pyridin-4-yl)oxy)phenyl)propan-1-one]	3 to 30	3 to 30
Cc1c[nH]c2nccc(Oc3ccc(CC(CN)C(=O)N4CCN(C)CC4)cc3)c12 (stereo not drawn) [Example 1, 3-amino-2-(4-((3-methyl-1H-pyrrolo[2,3-b]pyridin-4-yl)oxy)benzyl)-1-(4-methylpiperazin-1-yl)propan-1-one]	< 3	< 3
Cc1c[nH]c2nccc(Oc3ccc(CC(CN)C(=O)N4CCN(C5CC5)CC4)cc3)c12 (stereo not drawn) [Example 2, 3-amino-1-(4-cyclopropylpiperazin-1-yl)-2-(4-((3-methyl-1H-pyrrolo[2,3-b]pyridin-4-yl)oxy)benzyl)propan-1-one]	< 3	< 3
Cc1c[nH]c2nccc(Oc3ccc(CC(CN)C(=O)NC4CCN(C)CC4)cc3F)c12 (stereo not drawn) [Example 3, 3-amino-2-(3-fluoro-4-((3-methyl-1H-pyrrolo[2,3-b]pyridin-4-yl)oxy)benzyl)-N-(1-methylpiperidin-4-yl)propanamide]	< 3	< 3
Cc1c[nH]c2nccc(Oc3ccc(CC(CN)C(=O)N4C[C@@H]5C[C@H]4CN5C)cc3F)c12 (stereo partly drawn) [Example 4, 3-amino-2-(3-fluoro-4-((3-methyl-1H-pyrrolo[2,3-b]pyridin-4-yl)oxy)benzyl)-1-((1S,4S)-5-methyl-2,5-diazabicyclo[2.2.1]heptan-2-yl)propan-1-one]	< 3	< 3
Cc1c[nH]c2nccc(Oc3ccc(CC(CN)C(=O)N4CCN(Cc5ccccn5)CC4)cc3F)c12 (stereo not drawn) [Example 5, 3-amino-2-(3-fluoro-4-((3-methyl-1H-pyrrolo[2,3-b]pyridin-4-yl)oxy)benzyl)-1-(4-(pyridin-2-ylmethyl)piperazin-1-yl)propan-1-one]	< 3	< 3
Cc1cc2c(Oc3ccc(CC(CN)C(=O)N4CCN(Cc5ccccc5)CC4)cc3)ccnc2[nH]1 (stereo not drawn) [Example 6, 3-amino-1-(4-benzylpiperazin-1-yl)-2-(4-((2-methyl-1H-pyrrolo[2,3-b]pyridin-4-yl)oxy)benzyl)propan-1-one]	> 30	> 30
Cc1c[nH]c2nccc(Oc3ccc(C(N)CC(=O)N4CCN(Cc5ccccc5)CC4)cc3)c12 (stereo not drawn) [Example 7, 3-amino-1-(4-benzylpiperazin-1-yl)-3-(4-((3-methyl-1H-pyrrolo[2,3-b]pyridin-4-yl)oxy)phenyl)propan-1-one]	< 3	< 3
NC(C(=O)NC1CCCCC1)c1ccc(Oc2ccnc3[nH]ccc23)cc1 (stereo not drawn) [Example 8, 2-(4-((1H-pyrrolo[2,3-b]pyridin-4-yl)oxy)phenyl)-2-amino-N-cyclohexylacetamide]	> 30	> 30
NC(C(=O)Nc1ccccc1)c1ccc(Oc2ccnc3[nH]ccc23)cc1 (stereo not drawn) [Example 9, 2-(4-((1H-pyrrolo[2,3-b]pyridin-4-yl)oxy)phenyl)-2-amino-N-phenylacetamide]	> 30	> 30
NC(C(=O)Nc1ccc(C(F)(F)F)cc1)c1ccc(Oc2ccnc3[nH]ccc23)cc1 (stereo not drawn) [Example 10, 2-(4-((1H-pyrrolo[2,3-b]pyridin-4-yl)oxy)phenyl)-2-amino-N-(4-(trifluoromethyl)phenyl)acetamide]	> 30	> 30
